From patent US9730906B2, “α-derivatives of cis-monounsaturated fatty acids for use as medicines” (UNIVERSITAT DE LES ILLES BALEARS, priority 2008, dated 2017)
Where two headings read alike, the source gives them in different places.

Key:
A549 cells = assay: Growth/viability of A549 lung cancer cells in culture (cell count); type: cell-based, human; conditions: for tumour cell growth (number of cells, percent of untreated): 150 μM, 48 hours, A549
Experimental: FIG. 3A. Cancer cells (A549) were treated with various concentrations of OHOD and MOD11 to determine whether the effect was dependent on the concentration. […] These cells were treated with different concentrations (0-400 μM) of OHOD and MOD11 and the number of cells was determined by flow cytometry.
FIG. 3B. Cancer cells (A549) were treated with compounds indicated on the horizontal axis for 48 hours at 150 μM. Then, the cells were counted and their number and percent of untreated (control) represented on the vertical axis.
Also, a series of α-derivatives of cis-monounsaturated fatty acids were used to investigate their effectiveness in cancer treatment. Two types of experiment were performed. Firstly, the dependency of the anti-tumour effect on concentration was investigated. To perform these experiments, human lung cancer cells (A549) were cultivated in RPMI medium, supplemented with 10% foetal bovine […], 10 mM Hepes (pH 7.4), 2 mM glutamine, 2 g/l bicarbonate, 1 g/l glucose, 100 units/ml penicillin, 0.1 mg/ml streptomycin, 0.25 μg/ml Amphotericin B, at 37° C. and in the presence of 5% CO2. In a first experimental series, these cells were treated with various concentrations (0-400 μM) of OHOD and MOD11 and the number of cells was determined by flow cytometry (FIG. 3A). […] In a second series, the anti-tumour effectiveness on A549 lung cancer cells was investigated at a single concentration (150 μM) and a time of 48 hours (FIG. 3B). […] Obviously, among the previous molecules, some lacked both modifications on the α-carbon and the double bond in cis configuration (EO, HDO, ODO) and had no therapeutic effect. […]

hypertensive rats = assay: Arterial pressure in hypertensive rats after 8-day treatment (Table 5); type: in vivo, rat
[1] = Body weight of rats on cafeteria diet, no pre-treatment (Table 5); type: in vivo, rat
From the text: (§1) The weight of treated animals was statistically less than the weight of obese control rats and statistically indistinguishable from that of lean control rats.

SF767 human tumour cells = assay: Growth of SF767 tumour cells in culture; type: cell-based
Experimental: In a second experimental series, designed to discover whether these molecules are effective in treatment of different types of tumours, the effect of OHOD at various concentrations on human cells of different types of cancer was studied. These experiments were performed as described before, except that the M220 and HT-29 cell lines were cultured in DMEM medium and the MDA-MB-231 line was incubated in Leibowitz L-15 medium supplemented with 15% foetal bovine […]. […] Where the nature of the tumour process requires, application can be topical (use on the skin of active products for the treatment of melanoma and other cutaneous abnormalities of cancerous nature), which can be considered as cosmetic treatments when attempts are made to correct aesthetic defects.

[2] = Levels of cholesterol, triglycerides and glucose in rats after oral treatment; type: in vivo, rat
Experimental: FIG. 13. The four bars, from left to right respectively, show the effect of treatments with vehicle (control, first bar), OHOD at 200 mg/kg (second bar), OHOD at 400 mg/kg (third bar) and OHOD at 600 mg/kg (fourth bar) on the cholesterol levels (group of four bars to the left), triglycerides (group of four bars in the middle) and glucose (group of four bars to the right). The treatments were oral in all cases and were maintained for 30 days. The values indicated are the average obtained in 6 animals per group.
FIG. 14. Effect of treatment with vehicle (control) or with the fatty acids of the invention (600 mg/kg) on the levels of cholesterol, triglycerides and glucose. The values indicated are the average of the values obtained in 6 animals. Each group of three bars represents treatment with a different fatty acid with the left bar corresponding to cholesterol, the middle bar to triglycerides and the right bar to glucose.
Metabolic diseases form a set of pathologies characterised by the accumulation or deficit of certain molecules (cholesterol, triglycerides, glucose, etc.) in the serum or tissues. These changes are the reflection of dysfunctions that are normally associated with errors in the activity of certain enzymes or in the control of these proteins. Among the most important metabolopathies are hypercholesterolemia (elevated levels of cholesterol), hypertriglyceridemia (elevated levels of triglycerides) and diabetes (elevated levels of glucose). These pathologies have high rates of incidence, morbidity and mortality, so that treatment is a first order necessity. […] For these experiments, the dose of fatty acid indicated (0, 200, 400 and 600 mg/kg) was supplied daily via the oral route. At the end of the treatment (30 days), blood was sampled from control and treated animals (n=6) and the levels of cholesterol, triglycerides and glucose were determined using standard colorimetric methods.
(§2) In a further experiment, the effect of various molecules at a single dose (600 mg/kg) was investigated. […] In this sense, modification on the α-carbon and the double bond in cis configuration are crucial elements for producing the therapeutic effect indicated above. […] Finally, the effect of α-derivatives of cis-monounsaturated fatty acids on the prevention of obesity was investigated. For this, a model of rat obesity induced by a cafeteria diet, where the hypercaloric food increases the weight of the animals very markedly, was used. There were various experimental groups (see Table 3), each of which consisted of 6 female Wistar Kyoto rats of 250-300 g in weight. All the animals received a standard diet for 2 weeks. In addition, 2 of the groups received an oral preventative pre-treatment of vehicle and the other groups received 300 mg/kg of the fatty acids indicated below. Afterwards, one of the control groups was maintained on a standard diet (lean control) and the other was fed on a cafeteria diet (obese control). The treated animal groups were fed on the cafeteria diet. Preventative pre-treatment was maintained for all the groups. After two weeks on these diets, the lean control group had increased their body weight by an average of 16±16 g, while the obese control group had increased their body weight by an average of 43±17 g (statistically significance difference, p<0.01).

[3] = Rat obesity induced by cafeteria diet, preventative pre-treatment (Table 3); type: in vivo, Wistar Kyoto rats; conditions: 300 mg/kg oral, after two weeks on cafeteria diet; obese control 308 ± 17, lean control 280 ± 16; * lower than obese controls, ‡ indistinguishable
Experimental: as §2, §1

[4] = concentration that reduces the number of cells to half
[5] = arterial pressure, hypertensive rats, 8-day treatment, 400 mg/kg oral
[6] = cafeteria diet for 2 weeks, 300 mg/kg daily oral, no pre-treatment
[7] = rats, daily dose of 600 mg/kg oral, untreated controls = 100%

Compound | IC50 (A549 cells; [4]) | IC50 (SF767 human tumour cells; [4]) | PA (control 214 mmHg) (hypertensive rats; [5]) | Body weight (g) (control = 311 g) [1, 6] | % control CHO (cholesterol) [2, 7] | % control TG (triglycerides) [2, 7] | tumour cell growth (number of cells, percent of untreated) (A549 cells) | Final weight [3] | further results
CCCCCCCC/C=C\CCCCCCC(OP(=O)(OCC)OCC)C(=O)[O-].[Na+] (stereo not drawn) [Na-DEPOD] | 32 µM | 104 µM | 159 mmHg | 298 g | 45 % control | 37 % control |  |  | 
CCCCCCCC/C=C/CCCCCCC(O)C(=O)O (stereo not drawn) [tOHOD, α-Hydroxy-trans-octadecenoic, reference compound] |  |  |  |  |  |  | lacked anti-tumour effectiveness | 312 ± 19‡ g | 
CCCCCCCCCCCCCCCCCCCC(=O)O [EO, Eicosanoic, reference compound] |  |  |  |  |  |  | did not show anti-tumour effectiveness | 298 ± 12‡ g | 
Trans-Hexadecenoic [HD, reference compound] |  |  |  |  |  |  | did not show anti-tumour effectiveness | 309 ± 15‡ g | 
CCCCCCCCCCCCCCCCCC(=O)O [ODO, Octadecanoic, reference compound] |  |  |  |  |  |  | did not show anti-tumour effectiveness | 301 ± 18‡ g | 
CCCCCCCCCCCCCCCCC(O)C(=O)O (stereo not drawn) [OHS, α-Hydroxy-octadecanoic, reference compound] |  |  |  |  |  |  | lacked anti-tumour effectiveness | 314 ± 11‡ g | 
CCCCCCCCCCCCCCCC(=O)O [HDO, Hexadecanoic, reference compound] |  |  |  |  |  |  | did not show anti-tumour effectiveness | 299 ± 15‡ g | 
Cis-Docosenoic [DE, reference compound] |  |  |  |  |  |  | did not show anti-tumour effectiveness | 305 ± 12‡ g | 
CCCCCCCC/C=C/CCCCCCCC(=O)O [OD, Trans-Octadecenoic, reference compound] |  |  |  |  |  |  | did not show anti-tumour effectiveness | 311 ± 17‡ g | 
CCCCCCCC/C=C\CCCCCCC(OP(=O)(OCC)OCC)C(=O)O (stereo not drawn) [DEPOD, α-diethyl-phosphatidyl-cis-Δ9-octadecenoic] |  |  |  |  |  |  |  |  | IC50 (A549 cells): 57 µM; PA (control 214 mmHg) (hypertensive rats; rat, in vivo, po, 400 mg/kg): 147 mmHg; Body weight (g) (control = 311 g) ([1]; rat, in vivo): 301 g; IC50 (SF767 human tumour cells): 99 µM; % control CHO (cholesterol) ([2]; rat, in vivo, po, 600 mg/kg): 58 % control; % control TG (triglycerides) ([2]; rat, in vivo, po, 600 mg/kg): 43 % control
Cis-Eicosenoic [EE, reference compound] |  |  |  |  |  |  | did not show anti-tumour effectiveness | 301 ± 17‡ g | 

Second part, led by results:

IC50 (A549 cells; [4]) | IC50 (SF767 human tumour cells; [4]) | Compound | PA (control 214 mmHg) (hypertensive rats; [5]) | Body weight (g) (control = 311 g) [1, 6] | % control CHO (cholesterol) [2, 7] | % control TG (triglycerides) [2, 7] | tumour cell growth (number of cells, percent of untreated) (A549 cells) | Final weight [3] | further results
153 µM | 179 µM | CCCCCCCC/C=C\CCCCCCC(C(C)=O)C(=O)O (stereo not drawn) [ACOD, α-Acetyl-cis-Δ9-octadecenoic] | 157 mmHg | 301 g | 59 % control | 53 % control |  |  | 
79 µM | 68 µM | CCCCCCCCC=CCCCCCCC(O)C(=O)OCC (stereo not drawn) [EE-OHOD] | 161 mmHg | 295 g | 62 % control | 47 % control |  |  | 
149 µM | 128 µM | CCCCCCCC/C=C\CCCCCCC(OC)C(=O)OC (stereo not drawn) [OMe-MOOD] | 143 mmHg | 296 g | 77 % control | 69 % control |  |  | 
77 µM | 82 µM | CCCCCCCC/C=C\CCCCCCC(OP(=O)(OCC)OCC)C(=O)OCC (stereo not drawn) [EE-DEPOD] | 168 mmHg | 295 g | 69 % control | 49 % control |  |  | 
168 µM | 195 µM | CCCCCCCC/C=C\CCCCCCC(OC)C(=O)OCC (stereo not drawn) [EE-MOOD] | 154 mmHg | 297 g | 64 % control | 66 % control |  |  | 
77 µM | 91 µM | CCCCCCCC/C=C\CCCCCCC(OC)C(=O)[O-].[Na+] (stereo not drawn) [Na-MOOD] | 131 mmHg | 272 g | 63 % control | 68 % control |  |  | 
185 µM | 176 µM | CCCCCCCC/C=C\CCCCCCC(OC(C)=O)C(=O)OCC (stereo not drawn) [EE- ACOD] | 158 mmHg | 294 g | 72 % control | 56 % control |  |  | 
94 µM | 107 µM | CCCCCCCC/C=C\CCCCCCC(O)C(=O)OC (stereo not drawn) [OMe-OHOD] | 155 mmHg | 299 g | 71 % control | 64 % control |  |  | 
246 µM | 214 µM | CCCCCCCC/C=C\CCCCCCC(OC(C)=O)C(=O)OC (stereo not drawn) [OMe- ACOD] | 152 mmHg | 296 g | 86 % control | 74 % control |  |  | 
124 µM | 132 µM | CCCCCCCC/C=C\CCCCCCC(OC(C)=O)C(=O)[O-].[Na+] (stereo not drawn) [Na-ACOD] | 166 mmHg | 298 g | 49 % control | 35 % control |  |  | 
66 µM | 43 µM | CCCCCCCC/C=C\CCCCCCC(OP(=O)(OCC)OCC)C(=O)OC (stereo not drawn) [OMe-DEPOD] | 175 mmHg | 293 g | 63 % control | 45 % control |  |  | 
